Reference: publication PMC8486263 (RSC Advances, 2020)

Key:
HIV-1 (strain LAI) = assay: microbe, parasite or virus in culture; type: cell-based; conditions: Human immunodeficiency virus 1, PBMC, 144 h; HIV-1 LAI, MOI 0.1, PHA/IL-2 stimulated human PBM cells, 6 days; read-out: anti-HIV-1 EC50
Experimental: The assay was performed as described previously,[23a,b] with some modifications described elsewhere.[23c] […] Supernatants were harvested, and HIV-1 RT was quantified. Median effective concentrations (EC50) were determined using described method.[23d]

HBV = assay: Antiviral assay against HBV in HepAD38 cells, real-time PCR for HBV DNA; type: cell-based; conditions: Hepatitis B virus, 168 h
Experimental: HepAD38 cells[24] were seeded at 50 000 cells per well in collagen-coated 96-well plates. Test compounds or 3TC (control) were added to HepAD38 cells to a final concentration of 10 μM. Real-time PCR for HBV DNA lasted 7 days. On day 7, total DNA was purified from supernatant using commercially available kit (DNeasy 96 Blood & Tissue kit, Qiagen). The HBV DNA was amplified in a real-time PCR assay using LightCycler 480 (Roche) as described elsewhere.[23c] All samples were tested in triplicate. Analysis: the concentration of compound that inhibited HBV DNA replication by 50% (EC50) was determined by linear regression.

in vitro = conditions: African green monkey
Experimental: These assays were performed in human PBM, T lymphoblast CEM-CCRF (CEM), African green monkey kidney (Vero) or human liver (HepG2) cells. Results represent means from triplicate wells.
These were performed in […] (PBM), T lymphoblast CEM-CCRF (CEM), African green monkey kidney (Vero) or human liver (HepG2) cells via MTT assay using the CellTiter 96®. Non-Radioactive Cell Proliferation (Promega) kit as previously described.[23c] Cytotoxicity was expressed as the concentration of test compounds that inhibited cell proliferation by 50% (IC50) and calculated using the Chou and Talalay method.[25]

SMILES: Cc1cn([C@H]2C[C@H](N=[N+]=[N-])[C@@H](CO)O2)c(=O)[nH]c1=O [AZT, 3′-azido-3′-deoxythymidine]
- EC50 (HIV-1 (strain LAI)): 6 nM

SMILES: Nc1ccn([C@@H]2CS[C@H](CO)O2)c(=O)n1 [Lamivudine]
- EC50 (HBV; 7 days, HBV DNA in supernatant, read-out: anti-HBV EC50): < 10000 nM
- inhibition at 10 µM (HBV; at 10 μM, day 7): 97%

SMILES: C[C@@H]1C[C@@H]([C@H](O)CC2CC(=O)NC(=O)C2)C(=O)[C@@H](C)C1 [cycloheximide]
- IC50 (in vitro): 500 nM
